Assays:
Test in all cases: Kinase inhibition test
Assay type in all cases: biochemical
[1] = biological target: CDK5/p35 (Homo sapiens, UniProt Q00535)
Excerpt: (§1) Table 2 Pharmacological profile of SM-345431 (part 2) | column: IC50 (μm)

[2] = biological target: CaMKII
Excerpt: as §1

[3] = biological target: EGFR (Homo sapiens, UniProt P00533)
Excerpt: as §1

[4] = biological target: EphA2 (Homo sapiens, UniProt P29317)
Excerpt: as §1

[5] = biological target: EphA4 (Homo sapiens, UniProt P54764)
Excerpt: as §1

[6] = biological target: EphB2 (Homo sapiens, UniProt P29323)
Excerpt: as §1

[7] = biological target: EphB4 (Homo sapiens, UniProt P54760)
Excerpt: as §1

[8] = biological target: FGFR1 (Homo sapiens, UniProt P11362)
Excerpt: as §1

[9] = biological target: FGFR2 (Homo sapiens, UniProt P21802)
Excerpt: as §1

[10] = biological target: FGFR3 (Homo sapiens, UniProt P22607)
Excerpt: as §1

[11] = biological target: FGFR4 (Homo sapiens, UniProt P22455)
Excerpt: as §1

[12] = biological target: Fes (Homo sapiens, UniProt P07332)
Excerpt: as §1

[13] = biological target: Flt1 (Homo sapiens, UniProt P17948)
Excerpt: as §1

[14] = biological target: Flt3 (Homo sapiens, UniProt P36888)
Excerpt: as §1

[15] = biological target: Fyn (Homo sapiens, UniProt P06241)
Excerpt: as §1

[16] = biological target: GSK3α (Homo sapiens, UniProt P49840)
Excerpt: as §1

[17] = biological target: GSK3β (Homo sapiens, UniProt P49841)
Excerpt: as §1

[18] = biological target: IGF-1R (Homo sapiens, UniProt P08069)
Excerpt: as §1

[19] = biological target: JAK3 (Homo sapiens, UniProt P52333)
Excerpt: as §1

[20] = biological target: KDR (Homo sapiens, UniProt P35968)
Excerpt: as §1

[21] = biological target: MAPK2 (Homo sapiens, UniProt P28482)
Excerpt: as §1

[22] = biological target: MEK1 (Homo sapiens, UniProt Q02750)
Excerpt: as §1

[23] = biological target: MEK4 (Homo sapiens, UniProt P45985)
Excerpt: as §1

[24] = biological target: MKK6 (Homo sapiens, UniProt P52564)
Excerpt: as §1

[25] = biological target: PAK2 (Homo sapiens, UniProt Q13177)
Excerpt: as §1

[26] = biological target: PAK4 (Homo sapiens, UniProt O96013)
Excerpt: as §1

[27] = biological target: PI 3-Kγ (Homo sapiens, UniProt P48736)
Excerpt: as §1

[28] = biological target: PKBα (Homo sapiens, UniProt P31749)
Excerpt: as §1

[29] = biological target: PKBβ (Homo sapiens, UniProt P31751)
Excerpt: as §1

[30] = biological target: PKCγ (Homo sapiens, UniProt P05129)
Excerpt: as §1

[31] = biological target: ROCK-I (Homo sapiens, UniProt Q13464)
Excerpt: as §1

[32] = biological target: SAPK2a (Homo sapiens, UniProt Q16539)
Excerpt: as §1

[33] = biological target: TrkA (Homo sapiens, UniProt P04629)
Excerpt: as §1

[34] = biological target: TrkB (Homo sapiens, UniProt Q16620)
Excerpt: as §1

[35] = biological target: cSRC (Homo sapiens, UniProt P12931)
Excerpt: as §1

Chain of FGFR1 (P11362 22-822, species assumed): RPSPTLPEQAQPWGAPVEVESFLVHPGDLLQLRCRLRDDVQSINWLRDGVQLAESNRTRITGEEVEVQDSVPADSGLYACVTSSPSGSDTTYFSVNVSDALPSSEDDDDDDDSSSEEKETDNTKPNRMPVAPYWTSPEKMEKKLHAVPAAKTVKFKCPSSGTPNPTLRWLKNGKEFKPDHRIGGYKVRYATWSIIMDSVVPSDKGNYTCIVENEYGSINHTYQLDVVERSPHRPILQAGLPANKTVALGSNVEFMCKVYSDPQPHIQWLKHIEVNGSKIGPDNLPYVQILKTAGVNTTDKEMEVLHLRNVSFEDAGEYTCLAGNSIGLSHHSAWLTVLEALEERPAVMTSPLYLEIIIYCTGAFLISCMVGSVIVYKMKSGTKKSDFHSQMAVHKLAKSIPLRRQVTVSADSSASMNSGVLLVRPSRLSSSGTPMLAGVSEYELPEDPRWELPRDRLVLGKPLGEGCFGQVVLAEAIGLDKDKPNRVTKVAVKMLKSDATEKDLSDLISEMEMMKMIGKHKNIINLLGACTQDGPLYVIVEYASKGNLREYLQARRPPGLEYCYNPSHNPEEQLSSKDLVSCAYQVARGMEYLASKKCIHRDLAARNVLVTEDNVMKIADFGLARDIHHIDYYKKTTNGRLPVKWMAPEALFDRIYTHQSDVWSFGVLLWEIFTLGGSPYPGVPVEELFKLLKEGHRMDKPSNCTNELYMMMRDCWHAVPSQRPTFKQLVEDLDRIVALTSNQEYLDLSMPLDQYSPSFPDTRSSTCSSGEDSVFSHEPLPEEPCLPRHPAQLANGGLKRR
Chain of MEK4 (P45985 whole entry, species assumed): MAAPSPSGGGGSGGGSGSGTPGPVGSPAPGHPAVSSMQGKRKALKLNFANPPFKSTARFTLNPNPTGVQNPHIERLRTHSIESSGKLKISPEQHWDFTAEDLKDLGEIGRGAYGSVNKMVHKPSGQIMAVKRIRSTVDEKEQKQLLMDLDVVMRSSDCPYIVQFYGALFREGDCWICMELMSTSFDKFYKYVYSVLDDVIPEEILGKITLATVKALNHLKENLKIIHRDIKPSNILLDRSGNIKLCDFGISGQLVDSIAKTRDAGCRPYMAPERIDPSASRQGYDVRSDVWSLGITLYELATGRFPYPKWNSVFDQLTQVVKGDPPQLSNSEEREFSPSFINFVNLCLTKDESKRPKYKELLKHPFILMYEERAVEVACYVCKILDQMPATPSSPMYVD
Chain of PI 3-Kγ (P48736 whole entry, species assumed): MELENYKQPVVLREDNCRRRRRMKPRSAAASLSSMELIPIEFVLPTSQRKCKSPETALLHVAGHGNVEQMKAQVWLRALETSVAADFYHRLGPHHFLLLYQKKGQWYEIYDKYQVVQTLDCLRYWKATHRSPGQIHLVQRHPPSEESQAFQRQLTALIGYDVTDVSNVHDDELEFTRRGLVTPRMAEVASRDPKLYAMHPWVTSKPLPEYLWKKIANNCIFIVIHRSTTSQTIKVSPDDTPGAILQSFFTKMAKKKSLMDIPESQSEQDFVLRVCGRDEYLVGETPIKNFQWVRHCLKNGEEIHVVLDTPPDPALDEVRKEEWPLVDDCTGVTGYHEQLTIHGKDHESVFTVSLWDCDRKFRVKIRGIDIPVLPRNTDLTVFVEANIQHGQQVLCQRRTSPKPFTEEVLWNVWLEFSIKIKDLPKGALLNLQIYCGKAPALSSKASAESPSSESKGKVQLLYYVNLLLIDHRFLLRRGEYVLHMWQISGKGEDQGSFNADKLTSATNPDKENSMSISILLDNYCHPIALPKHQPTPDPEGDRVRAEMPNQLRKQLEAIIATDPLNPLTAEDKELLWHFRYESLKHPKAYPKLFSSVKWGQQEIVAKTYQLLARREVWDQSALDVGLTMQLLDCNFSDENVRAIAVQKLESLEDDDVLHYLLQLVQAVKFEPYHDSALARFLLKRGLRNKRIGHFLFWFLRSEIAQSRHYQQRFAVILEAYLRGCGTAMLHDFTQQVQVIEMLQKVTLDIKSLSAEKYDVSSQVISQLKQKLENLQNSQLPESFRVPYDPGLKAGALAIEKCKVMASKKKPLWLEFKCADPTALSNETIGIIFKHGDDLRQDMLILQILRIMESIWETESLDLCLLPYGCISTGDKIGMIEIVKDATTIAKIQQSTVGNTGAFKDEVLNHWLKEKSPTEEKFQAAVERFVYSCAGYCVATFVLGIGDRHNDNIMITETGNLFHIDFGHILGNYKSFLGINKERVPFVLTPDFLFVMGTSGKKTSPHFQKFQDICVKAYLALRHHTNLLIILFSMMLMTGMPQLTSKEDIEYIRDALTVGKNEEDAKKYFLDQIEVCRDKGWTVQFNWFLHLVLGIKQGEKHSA
Chain of PAK2 (Q13177 whole entry, species assumed): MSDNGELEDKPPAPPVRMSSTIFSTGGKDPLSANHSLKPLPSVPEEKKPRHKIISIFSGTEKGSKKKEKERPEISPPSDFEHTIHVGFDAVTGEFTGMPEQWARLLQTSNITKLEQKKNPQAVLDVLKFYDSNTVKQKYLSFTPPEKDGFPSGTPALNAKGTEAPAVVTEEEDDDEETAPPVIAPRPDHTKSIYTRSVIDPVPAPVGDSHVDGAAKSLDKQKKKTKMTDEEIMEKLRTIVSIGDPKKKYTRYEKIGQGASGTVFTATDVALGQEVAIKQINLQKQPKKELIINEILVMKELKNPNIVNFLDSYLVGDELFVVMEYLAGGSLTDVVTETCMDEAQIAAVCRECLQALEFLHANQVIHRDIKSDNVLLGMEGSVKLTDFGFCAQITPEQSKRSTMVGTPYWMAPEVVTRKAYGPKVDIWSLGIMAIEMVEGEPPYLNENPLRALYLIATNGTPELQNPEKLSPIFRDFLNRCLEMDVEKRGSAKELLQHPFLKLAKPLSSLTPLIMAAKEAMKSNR
Chain of FGFR4 (P22455 22-802, species assumed): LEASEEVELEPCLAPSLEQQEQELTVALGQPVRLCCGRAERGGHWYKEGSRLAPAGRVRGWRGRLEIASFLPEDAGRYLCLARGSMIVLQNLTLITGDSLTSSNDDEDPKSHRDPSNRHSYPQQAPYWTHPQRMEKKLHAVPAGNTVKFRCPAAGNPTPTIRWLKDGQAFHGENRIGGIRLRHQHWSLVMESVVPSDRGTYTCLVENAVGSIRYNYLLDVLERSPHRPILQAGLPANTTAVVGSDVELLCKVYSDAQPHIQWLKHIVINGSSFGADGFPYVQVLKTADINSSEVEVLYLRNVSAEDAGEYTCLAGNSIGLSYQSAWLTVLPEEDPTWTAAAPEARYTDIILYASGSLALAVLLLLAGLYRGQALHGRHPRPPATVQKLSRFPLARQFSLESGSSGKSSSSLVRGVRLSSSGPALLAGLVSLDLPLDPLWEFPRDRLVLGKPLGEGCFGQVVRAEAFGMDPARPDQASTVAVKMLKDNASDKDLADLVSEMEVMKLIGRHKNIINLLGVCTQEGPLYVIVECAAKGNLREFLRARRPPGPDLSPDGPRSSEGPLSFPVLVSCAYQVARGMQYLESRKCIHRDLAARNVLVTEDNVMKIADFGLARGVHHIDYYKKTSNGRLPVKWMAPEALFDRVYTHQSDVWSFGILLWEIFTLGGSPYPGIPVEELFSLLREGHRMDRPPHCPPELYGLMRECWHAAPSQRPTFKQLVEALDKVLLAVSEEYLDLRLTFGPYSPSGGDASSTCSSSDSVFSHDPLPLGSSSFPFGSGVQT
Chain of EphA4 (P54764 20-986, species assumed): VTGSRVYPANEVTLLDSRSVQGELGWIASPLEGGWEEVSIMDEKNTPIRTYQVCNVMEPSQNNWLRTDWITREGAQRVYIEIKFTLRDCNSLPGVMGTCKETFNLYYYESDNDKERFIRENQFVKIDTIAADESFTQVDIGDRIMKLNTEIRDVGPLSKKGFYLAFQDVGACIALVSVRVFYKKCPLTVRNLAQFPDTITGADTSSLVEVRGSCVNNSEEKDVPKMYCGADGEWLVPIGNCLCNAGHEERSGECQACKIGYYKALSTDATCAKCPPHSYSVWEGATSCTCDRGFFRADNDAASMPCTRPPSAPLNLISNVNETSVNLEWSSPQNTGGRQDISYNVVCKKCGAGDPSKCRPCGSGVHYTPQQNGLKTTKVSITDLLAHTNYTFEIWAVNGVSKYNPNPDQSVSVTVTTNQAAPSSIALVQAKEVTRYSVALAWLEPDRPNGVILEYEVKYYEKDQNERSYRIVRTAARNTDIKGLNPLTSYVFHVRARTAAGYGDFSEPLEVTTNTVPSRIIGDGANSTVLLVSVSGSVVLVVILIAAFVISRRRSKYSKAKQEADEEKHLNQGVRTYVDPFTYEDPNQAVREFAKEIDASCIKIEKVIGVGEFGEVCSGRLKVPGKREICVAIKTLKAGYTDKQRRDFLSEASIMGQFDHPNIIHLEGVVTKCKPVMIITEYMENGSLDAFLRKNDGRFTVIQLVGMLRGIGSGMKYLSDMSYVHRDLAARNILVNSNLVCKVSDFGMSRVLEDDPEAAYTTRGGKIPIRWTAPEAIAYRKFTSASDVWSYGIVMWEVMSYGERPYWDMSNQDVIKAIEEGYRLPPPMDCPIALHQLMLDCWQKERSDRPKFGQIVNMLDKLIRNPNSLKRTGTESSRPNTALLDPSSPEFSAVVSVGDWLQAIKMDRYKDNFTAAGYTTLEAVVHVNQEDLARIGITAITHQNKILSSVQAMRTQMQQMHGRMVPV
Chain of SAPK2a (Q16539 whole entry, species assumed): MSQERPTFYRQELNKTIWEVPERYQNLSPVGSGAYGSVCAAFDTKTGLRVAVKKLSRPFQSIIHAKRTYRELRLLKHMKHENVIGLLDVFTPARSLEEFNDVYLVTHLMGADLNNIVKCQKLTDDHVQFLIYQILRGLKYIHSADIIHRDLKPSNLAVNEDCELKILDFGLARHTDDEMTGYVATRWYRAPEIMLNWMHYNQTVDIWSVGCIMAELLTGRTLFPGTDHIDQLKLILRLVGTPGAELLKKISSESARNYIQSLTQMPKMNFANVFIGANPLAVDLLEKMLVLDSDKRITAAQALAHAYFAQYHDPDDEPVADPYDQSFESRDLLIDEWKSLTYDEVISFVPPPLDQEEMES

SMILES: CC(=O)c1cc2c(=O)c3c(C(=O)O)c(O)c(O)cc3oc2c(C(C)=O)c1-c1coc2cc(O)c(O)c(C(=O)O)c2c1=O [SM-345431, Vinaxanthone]
- IC50 [1]: > 10 µM
- IC50 [2]: > 10 µM
- IC50 [3]: 900 nM
- IC50 [4]: > 10 µM
- IC50 [5]: 800 nM
- IC50 [6]: 680 nM
- IC50 [7]: > 10 µM
- IC50 [8]: > 10 µM
- IC50 [9]: > 10 µM
- IC50 [10]: 770 nM
- IC50 [11]: 640 nM
- IC50 [12]: > 10 µM
- IC50 [13]: > 10 µM
- IC50 [14]: > 10 µM
- IC50 [15]: > 10 µM
- IC50 [16]: 2460 nM
- IC50 [17]: > 10 µM
- IC50 [18]: > 10 µM
- IC50 [19]: > 10 µM
- IC50 [20]: > 10 µM
- IC50 [21]: > 10 µM
- IC50 [22]: > 10 µM
- IC50 [23]: > 10 µM
- IC50 [24]: > 10 µM
- IC50 [25]: > 10 µM
- IC50 [26]: > 10 µM
- IC50 [27]: > 10 µM
- IC50 [28]: > 10 µM
- IC50 [29]: > 10 µM
- IC50 [30]: > 10 µM
- IC50 [31]: > 10 µM
- IC50 [32]: > 10 µM
- IC50 [33]: > 10 µM
- IC50 [34]: > 10 µM
- IC50 [35]: > 10 µM
